Measurements as given in patent US7138361B2, “Herbicidal heterocycles” (E. I. du Pont de Nemours and Company, priority 2000, dated 2006).

Columns and labels:
Type in all cases: in vivo
Nightshade = assay: Test C preemergence
Sunflower [1] = assay: Test C preemergence; conditions: Rate 125 g/ha; scale 0 to 100, 0 no effect, 100 complete control
[2] = system: Surinam grass (Brachiaria decumbens); assay: Test C preemergence
Outline: (§1)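 Preemergence: seeds sown then treated. Postemergence: plants 2–18 cm, 1- to 4-leaf. Both with surfactant-containing solvent formulation; visual injury scored 0–100 after 12–14 d.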

[3] = system: bermudagrass (Cynodon dactylon); assay: Test C preemergence
Outline: as §1

[4] = system: cocklebur (Xanthium strumarium); assay: Test C preemergence
Outline: as §1

corn (Zea mays) = assay: Test C preemergence
Outline: as §1

[5] = system: crabgrass (Digitaria sanguinalis); assay: Test C preemergence
Outline: as §1

[6] = system: giant foxtail (Setaria faberii); assay: Test C preemergence
Outline: as §1

[7] = system: goosegrass (Eleusine indica); assay: Test C preemergence
Outline: as §1

[8] = system: johnsongrass (Sorghum halepense); assay: Test C preemergence
Outline: as §1

kochia (Kochia scoparia) = assay: Test C preemergence
Outline: as §1

[9] = system: lambsquarters (Chenopodium album); assay: Test C preemergence
Outline: as §1

[10] = system: morningglory (Ipomoea hederacea); assay: Test C preemergence
Outline: as §1

[11] = system: pigweed (Amaranthus retroflexus); assay: Test C preemergence
Outline: as §1

soybean (Glycine max) = assay: Test C preemergence; conditions: preemergence; Rate 250 g/ha; scale 0 to 100, 0 no effect, 100 complete control
Outline: as §1

[12] = system: velvetleaf (Abutilon theophrasti); assay: Test C preemergence
Outline: as §1

[13] = system: woolly cupgrass (Eriochloa villosa); assay: Test C preemergence
Outline: as §1

[14] = system: yellow nutsedge (Cyperus esculentus); assay: Test C preemergence
Outline: as §1

[15] = system: barnyardgrass (Echinochloa crus-galli); assay: Test C flooded paddy test; conditions: for Barnyardgrass plant response rating: Flooded Paddy, scale 0 to 100, 0 no effect, 100 complete control; for Plant response rating, Barnyardgrass: flooded paddy test, scale 0 to 100 (0 no effect, 100 complete control)
Outline: (§2)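 Visual ratings (0 = no effect, 100 = complete control) were made 12–14 days after treatment, relative to greenhouse controls. Plants in the flooded paddy test were rice, smallflower flatsedge, duck salad and barnyardgrass, treated at the 2-leaf stage.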

[16] = system: duck salad (Heteranthera limosa); assay: Test C flooded paddy test; conditions: for Ducksalad plant response rating: Flooded Paddy, scale 0 to 100, 0 no effect, 100 complete control; for Plant response rating, Ducksalad: flooded paddy test, scale 0 to 100 (0 no effect, 100 complete control)
Outline: as §2

[17] = system: smallflower flatsedge (Cyperus difformis); assay: Test C flooded paddy test; conditions: for Flatsedge plant response rating: Flooded Paddy, scale 0 to 100, 0 no effect, 100 complete control; for Plant response rating, Flatsedge: flooded paddy test, scale 0 to 100 (0 no effect, 100 complete control)
Outline: as §2

Sunflower [18] = assay: Test C preemergence; conditions: Rate 500 g/ha, visual evaluation after 12 to 14 days
[19] = Rate 125 g/ha, scale 0 to 100, 0 no effect, 100 complete control
[20] = preemergence, Rate 62 g/ha, scale 0 to 100
[21] = preemergence, Rate 500 g/ha, visual evaluation after 12 to 14 days
[22] = preemergence, Rate 250 g/ha, scale 0 to 100, 0 no effect, 100 complete control

For `CCOc1cccc(N2CCC(n3ccc(C(C)C)n3)C2=O)c1` (stereo not drawn) [Compound 128], the “Plant response rating, Nightshade” value (Nightshade; Rate 62 g/ha, scale 0 to 100) was 20, the “Plant response rating, Nightshade” value (Nightshade; [19]) was 40 and the “Plant response rating, Nightshade” value (Nightshade; Rate 250 g/ha, scale 0 to 100, 0 no effect, 100 complete control) was 90. For the same compound, the “Plant response rating, Sunflower” value (Sunflower [1]) was 100, the “Plant response rating, Surinam grass” value [2, 19] was 100 and the “Plant response rating, Surinam grass” value [2, 20] was 90. The “Plant response rating (0 to 100), Surinam grass” value [2, 21] was 100, the “Plant response rating, Surinam grass” value [2, 22] was 100 and the “Plant response rating, Bermudagrass” value [3, 19] was 100. The “Plant response rating, Bermudagrass” value [3, 20] was 100, the “Plant response rating (0 to 100 where 0 is no effect and 100 is complete control), Bermudagrass” value [3, 21] was 100 and the “Plant response rating, Bermudagrass” value [3, 22] was 100. For the same compound, the “Plant response rating, Cocklebur” value [4, 19] was 10, the “Plant response rating, Cocklebur” value [4, 20] was 0 and the “Plant response rating (0 to 100), Cocklebur” value [4, 21] was 70. For the same compound, the “Plant response rating, Cocklebur” value [4, 22] was 40, the “Plant response rating, Corn” value (corn (Zea mays); [19]) was 20 and the “Plant response rating, Corn” value (corn (Zea mays); [20]) was 0. For the same compound, the “Plant response rating (0 to 100), Corn” value (corn (Zea mays); [21]) was 60, the “Plant response rating, Corn” value (corn (Zea mays); [22]) was 40 and the “Plant response rating, Crabgrass” value [5, 19] was 100. The “Plant response rating, Crabgrass” value [5, 20] was 100, the “Plant response rating (0 to 100), Crabgrass” value [5, 21] was 100 and the “Plant response rating, Crabgrass” value [5, 22] was 100. The “Plant response rating, Foxtail, Giant” value [6, 19] was 90, the “Plant response rating, Foxtail, Giant” value [6, 20] was 20 and the “Plant response rating (0 to 100), Foxtail, Giant” value [6, 21] was 100. The “Plant response rating, Foxtail, Giant” value [6, 22] was 90, the “Plant response rating, Goosegrass” value [7, 19] was 100 and the “Plant response rating, Goosegrass” value [7, 20] was 100. The “Plant response rating (0 to 100), Goosegrass” value [7, 21] was 100, the “Plant response rating, Goosegrass” value [7, 22] was 100 and the “Plant response rating, Johnsongrass” value [8, 19] was 90. The “Plant response rating, Johnsongrass” value [8, 20] was 60, the “Plant response rating (0 to 100), Johnsongrass” value [8, 21] was 100 and the “Plant response rating, Johnsongrass” value [8, 22] was 100. The “Plant response rating, Kochia” value (kochia (Kochia scoparia); [19]) was 100, the “Plant response rating, Kochia” value (kochia (Kochia scoparia); [20]) was 100 and the “Plant response rating (0 to 100), Kochia” value (kochia (Kochia scoparia); [21]) was 100. For the same compound, the “Plant response rating, Kochia” value (kochia (Kochia scoparia); [22]) was 100, the “Plant response rating, Lambsquarters” value [9, 19] was 100 and the “Plant response rating, Lambsquarters” value [9, 20] was 100. The “Plant response rating (0 to 100), Lambsquarters” value [9, 21] was 100, the “Plant response rating, Lambsquarters” value [9, 22] was 100 and the “Plant response rating, Morningglory” value [10, 19] was 60. For the same compound, the “Plant response rating, Morningglory” value [10, 20] was 30, the “Plant response rating (0 to 100), Morningglory” value [10, 21] was 80 and the “Plant response rating, Morningglory” value [10, 22] was 70. For the same compound, the “Plant response rating, Pigweed” value [11, 19] was 70, the “Plant response rating, Pigweed” value [11, 20] was 70 and the “Plant response rating (0 to 100), Pigweed” value [11, 21] was 100. For the same compound, the “Plant response rating, Pigweed” value [11, 22] was 80, the “Plant response rating, Soybean” value (soybean (Glycine max)) was 60 and the “Plant response rating, Velvetleaf” value [12, 19] was 20. For the same compound, the “Plant response rating, Velvetleaf” value [12, 20] was 10, the “Plant response rating (0 to 100), Velvetleaf” value [12, 21] was 50 and the “Plant response rating, Velvetleaf” value [12, 22] was 30. The “Plant response rating, Cupgrass, Woolly” value [13, 19] was 100, the “Plant response rating, Cupgrass, Woolly” value [13, 20] was 100 and the “Plant response rating (0 to 100), Cupgrass, Woolly” value [13, 21] was 100. The “Plant response rating, Cupgrass, Woolly” value [13, 22] was 100, the “Plant response rating, Nutsedge” value [14, 19] was 70 and the “Plant response rating, Nutsedge” value [14, 20] was 20. For the same compound, the “Plant response rating (0 to 100), Nutsedge” value [14, 21] was 100, the “Plant response rating, Nutsedge” value [14, 22] was 100 and the “Barnyardgrass plant response rating” value ([15]; Rate 250 g/ha) was 100. The “Barnyardgrass plant response rating” value ([15]; Rate 500 g/ha) was 100, the “Plant response rating, Barnyardgrass” value ([15]; Rate 62 g/ha) was 40 and the “Plant response rating, Barnyardgrass” value ([15]; Rate 125 g/ha) was 100. The “Ducksalad plant response rating” value ([16]; Rate 250 g/ha) was 100, the “Ducksalad plant response rating” value ([16]; Rate 500 g/ha) was 100 and the “Plant response rating, Ducksalad” value ([16]; Rate 62 g/ha) was 60. For the same compound, the “Plant response rating, Ducksalad” value ([16]; Rate 125 g/ha) was 70, the “Flatsedge plant response rating” value ([17]; Rate 250 g/ha) was 100 and the “Flatsedge plant response rating” value ([17]; Rate 500 g/ha) was 100. For the same compound, the “Plant response rating, Flatsedge” value ([17]; Rate 62 g/ha) was 90, the “Plant response rating, Flatsedge” value ([17]; Rate 125 g/ha) was 90 and the “Plant response rating (0 to 100), Sunflower” value (Sunflower [18]) was 100.
